US20230117680A1, “CYCLOPHILIN D INHIBITORS AND USES THEREOF” (The Broad Institute, Inc., priority 2019, published 2023)
“Also recorded” adds a separate entry of the source.

Legend:
[1] = biological target: T1, NKTR (Homo sapiens, UniProt P30414); assay: chymotrypsin coupled PPIase assay, NKTR inhibition; type: biochemical; settings: result in words
T1 sequence (P30414 1-1462): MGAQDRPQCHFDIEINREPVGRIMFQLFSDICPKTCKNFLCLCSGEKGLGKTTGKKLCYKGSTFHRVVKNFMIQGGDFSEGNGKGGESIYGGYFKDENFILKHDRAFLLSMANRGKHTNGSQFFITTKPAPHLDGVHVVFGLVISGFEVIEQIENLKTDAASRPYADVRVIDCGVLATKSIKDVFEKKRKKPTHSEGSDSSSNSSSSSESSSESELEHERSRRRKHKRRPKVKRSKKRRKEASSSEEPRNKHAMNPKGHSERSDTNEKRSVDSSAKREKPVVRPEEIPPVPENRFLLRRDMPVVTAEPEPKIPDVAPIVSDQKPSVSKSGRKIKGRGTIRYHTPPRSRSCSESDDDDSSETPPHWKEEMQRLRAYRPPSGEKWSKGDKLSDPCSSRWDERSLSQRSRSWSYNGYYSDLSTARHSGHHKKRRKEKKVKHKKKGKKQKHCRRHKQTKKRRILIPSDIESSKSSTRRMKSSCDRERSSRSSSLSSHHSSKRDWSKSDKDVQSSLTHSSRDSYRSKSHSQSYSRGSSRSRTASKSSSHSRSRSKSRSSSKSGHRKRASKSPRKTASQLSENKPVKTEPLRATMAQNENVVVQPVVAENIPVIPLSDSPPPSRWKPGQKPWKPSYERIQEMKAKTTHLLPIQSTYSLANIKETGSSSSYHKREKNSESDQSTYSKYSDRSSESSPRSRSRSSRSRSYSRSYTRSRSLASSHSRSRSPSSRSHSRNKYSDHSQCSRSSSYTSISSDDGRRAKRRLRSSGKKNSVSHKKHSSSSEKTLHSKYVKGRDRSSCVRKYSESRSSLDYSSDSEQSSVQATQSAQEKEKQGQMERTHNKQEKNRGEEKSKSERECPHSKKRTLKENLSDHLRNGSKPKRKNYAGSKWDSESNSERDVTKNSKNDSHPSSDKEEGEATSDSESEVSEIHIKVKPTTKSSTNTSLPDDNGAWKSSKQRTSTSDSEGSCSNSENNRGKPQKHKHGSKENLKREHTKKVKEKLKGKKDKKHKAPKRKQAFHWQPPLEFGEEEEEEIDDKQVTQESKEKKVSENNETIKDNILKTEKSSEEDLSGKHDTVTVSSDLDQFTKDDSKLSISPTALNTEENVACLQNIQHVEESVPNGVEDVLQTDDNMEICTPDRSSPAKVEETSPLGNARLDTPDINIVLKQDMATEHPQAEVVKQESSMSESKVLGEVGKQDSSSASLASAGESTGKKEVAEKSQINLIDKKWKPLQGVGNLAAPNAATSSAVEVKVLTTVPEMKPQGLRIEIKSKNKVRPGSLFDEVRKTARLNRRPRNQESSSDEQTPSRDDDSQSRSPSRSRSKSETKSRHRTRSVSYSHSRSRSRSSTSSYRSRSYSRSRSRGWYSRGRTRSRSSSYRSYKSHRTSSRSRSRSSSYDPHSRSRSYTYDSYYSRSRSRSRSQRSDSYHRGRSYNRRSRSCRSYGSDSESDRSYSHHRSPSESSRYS
Method: (§1) Following the synthesis of the indicated library members, in vitro inhibition (IC50) assays of these hits were conducted to obtain IC50 inhibitory data. For the IC50 assays, a chymotrypsin coupled PPIase assay using Suc-AAPF-AMC as the peptide substrate was used, whereby isomerization of a peptide substrate Suc-AAPF-AMC from the cis to trans conformation allowed for proteolysis via excess a-chymotrypsin, releasing the C-terminal coumarin fluorophore. […] Other non-inhibitor library members were also checked for binding via SPR, but produced the same profile as the prolyl isomerase assay.
(§2) Subsequently, to determine if the compounds could both access the S2 pocket and display CypD specificity, JOMBtrans and compound 49 were screened against the 10 other cyclophilins with reported prolyl isomerase activity. […] Co-crystal structures of JOMBtrans and 49 were solved with CypD. […] Three further H-bonds with the macrocycle's backbone and CypD were observed along with a cation-n interaction. […] The benzyl group on the piperidine ring altered the conformation of the macrocycle to open up two new hydrogen bonding interactions with CypD. […] This improvement in specificity compared to JOMBtrans signified that more CypD specific compounds can be garnered by derivatization into the S2 pocket.

[2] = biological target: T2, CypG (Homo sapiens, UniProt Q13427); assay: chymotrypsin coupled PPIase assay, CypG inhibition; type: biochemical; settings: result in words
T2 sequence (Q13427 1-754): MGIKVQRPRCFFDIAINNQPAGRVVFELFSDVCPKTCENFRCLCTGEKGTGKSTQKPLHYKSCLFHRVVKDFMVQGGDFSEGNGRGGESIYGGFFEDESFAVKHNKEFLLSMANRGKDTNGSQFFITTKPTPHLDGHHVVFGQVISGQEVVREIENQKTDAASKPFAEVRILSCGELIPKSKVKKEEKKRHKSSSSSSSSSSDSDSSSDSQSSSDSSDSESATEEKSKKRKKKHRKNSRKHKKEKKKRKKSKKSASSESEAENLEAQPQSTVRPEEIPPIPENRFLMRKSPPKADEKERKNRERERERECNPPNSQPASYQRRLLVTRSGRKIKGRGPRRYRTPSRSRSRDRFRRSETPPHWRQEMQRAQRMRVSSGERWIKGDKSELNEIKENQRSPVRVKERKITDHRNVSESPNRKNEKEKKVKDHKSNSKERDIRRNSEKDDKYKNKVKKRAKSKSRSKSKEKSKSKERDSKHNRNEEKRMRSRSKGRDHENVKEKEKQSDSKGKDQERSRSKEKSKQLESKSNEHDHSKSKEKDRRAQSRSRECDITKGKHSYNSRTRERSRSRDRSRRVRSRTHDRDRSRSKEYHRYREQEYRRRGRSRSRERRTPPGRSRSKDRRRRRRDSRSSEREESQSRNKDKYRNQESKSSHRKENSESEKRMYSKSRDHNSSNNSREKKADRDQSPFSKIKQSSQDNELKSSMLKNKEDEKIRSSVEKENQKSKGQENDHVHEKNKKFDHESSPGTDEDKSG
Method: as §1, §2

[3] = biological target: T3, PPWD1 (Homo sapiens, UniProt Q96BP3); assay: chymotrypsin coupled PPIase assay, PPWD1 inhibition; type: biochemical; settings: result in words
T3 sequence (Q96BP3 1-646): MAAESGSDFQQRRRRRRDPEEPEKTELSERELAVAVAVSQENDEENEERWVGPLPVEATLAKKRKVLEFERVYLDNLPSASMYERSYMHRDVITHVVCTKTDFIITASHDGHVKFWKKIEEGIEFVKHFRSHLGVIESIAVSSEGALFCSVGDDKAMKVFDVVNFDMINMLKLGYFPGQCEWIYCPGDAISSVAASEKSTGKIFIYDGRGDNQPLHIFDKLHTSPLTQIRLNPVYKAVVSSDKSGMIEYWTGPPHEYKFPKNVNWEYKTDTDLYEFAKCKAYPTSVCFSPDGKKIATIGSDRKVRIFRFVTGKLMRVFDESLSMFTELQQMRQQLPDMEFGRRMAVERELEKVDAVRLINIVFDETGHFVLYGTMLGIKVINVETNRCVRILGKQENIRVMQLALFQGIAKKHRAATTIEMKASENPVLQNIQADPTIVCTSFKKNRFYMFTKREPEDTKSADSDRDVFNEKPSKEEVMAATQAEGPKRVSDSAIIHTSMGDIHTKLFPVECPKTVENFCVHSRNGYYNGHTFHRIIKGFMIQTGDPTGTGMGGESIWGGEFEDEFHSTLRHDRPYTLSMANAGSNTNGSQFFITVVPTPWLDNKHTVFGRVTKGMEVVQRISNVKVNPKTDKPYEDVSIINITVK
Method: as §1, §2

[4] = biological target: CypH (Homo sapiens, UniProt O43447); assay: chymotrypsin coupled PPIase assay, CypH inhibition; type: biochemical; settings: result in words
Chain of CypH (O43447 whole entry): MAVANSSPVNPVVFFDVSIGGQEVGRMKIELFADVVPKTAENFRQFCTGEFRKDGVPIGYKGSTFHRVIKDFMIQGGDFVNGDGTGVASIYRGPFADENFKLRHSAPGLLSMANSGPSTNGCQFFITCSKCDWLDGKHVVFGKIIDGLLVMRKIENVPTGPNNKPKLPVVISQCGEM
Method: as §1, §2

[5] = system: mPTP in isolated mice kidney mitochondria; assay: inhibition of mPTP in isolated mitochondria (tolerated Ca2+ pulses before full mPTP opening); settings: result in words
Method: In isolated mice kidney mitochondria, the maximum number of Ca^2+ pulses that could be tolerated before full mPTP opening was measured (see FIG. 24).

[6] = system: mPTP; assay: inhibition of mPTP in in vitro cell culture; type: cell-based; settings: result in words
Method: As disclosed herein, macrocycle inhibitors of cyclophilin D have been discovered and designed with previously unparalleled specificity. An active site binder displaying weak inhibition (IC50=15 uM) and no selectivity profile was initially optimized to 200 nM. CypD specificity was designed by building into S2 pocket residues. Bi-phenyl para-carboxylates provided the greatest level of potency (<2-30 nM) and selectivity for CypD. Co-crystal structures of these macrocycles bound to CypD were solved, and a dual binding mode was determined between active site and S2 pocket. MD simulations of co-crystal structures were conducted to observe dynamic interactions of carboxylate with S2 pocket. Initial proof of target engagement was determined via inhibition of the mPTP.

[7] = biological target: CypD (Homo sapiens, UniProt P30405); assay: chymotrypsin coupled PPIase assay (Suc-AAPF-AMC substrate), CypD inhibition; type: biochemical
Chain of CypD (P30405 30-207): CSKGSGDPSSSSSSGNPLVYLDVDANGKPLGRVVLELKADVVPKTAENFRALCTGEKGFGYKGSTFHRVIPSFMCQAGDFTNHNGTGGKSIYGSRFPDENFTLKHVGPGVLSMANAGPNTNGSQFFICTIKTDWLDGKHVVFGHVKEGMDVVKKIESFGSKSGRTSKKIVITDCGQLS
Excerpt: (§3) The selectivity of a compound described herein in inhibiting the activity of a first cyclophilin (e.g., CypD) over a second cyclophilin may be measured by the quotient of the IC50 value of the compound in inhibiting the activity of the second cyclophilin over the IC50 value of the compound in inhibiting the activity of the first cyclophilin. The selectivity of a compound described herein in modulating the activity of a first cyclophilin over a second cyclophilin may also be measured by the quotient of the Kd value of an adduct of the compound and the second cyclophilin over the Kd value of an adduct of the compound and the first cyclophilin (e.g., CypD). […] In certain embodiments, selectivity for inhibiting a first cyclophilin over other cyclophilins is measured by Surface Plasmon Resonance (SPR) assays as disclosed in the Examples.
(§4) Following the synthesis of the indicated library members, in vitro inhibition (IC50) assays of these hits were conducted to obtain IC50 inhibitory data. For the IC50 assays, a chymotrypsin coupled PPIase assay using Suc-AAPF-AMC as the peptide substrate was used, whereby isomerization of a peptide substrate Suc-AAPF-AMC from the cis to trans conformation allowed for proteolysis via excess a-chymotrypsin, releasing the C-terminal coumarin fluorophore.

[8] = system: 10 other cyclophilins with reported prolyl isomerase activity; assay: cyclophilin specificity screen: CypD against the other cyclophilins; type: biochemical; settings: result in words
Excerpt: as §3, §4
Subsequently, to determine if the compounds could both access the S2 pocket and display CypD specificity, JOMBtrans and compound 49 were screened against the 10 other cyclophilins with reported prolyl isomerase activity. […] Co-crystal structures of JOMBtrans and 49 were solved with CypD.

In the case of NCCOCCNC(=O)[C@@H]1CCNC(=O)/C=C/C(=O)N2CCC[C@](Cc3ccccc3)(C2)C(=O)N[C@@H](Cc2ccc(C(=O)c3ccccc3)cc2)C(=O)NCc2ccccc2CC(=O)N1 [A-1], the “inhibition of NKTR” value [1] is reported as “abolished inhibition”, the “inhibition of CypG” value [2] is reported as “abolished inhibition” and the “inhibition of PPWD1” value [3] is reported as “abolished inhibition”. For the same compound, the “inhibition of CypH” value [4] was “abolished inhibition”.
With CC(C)(C)c1ccc(C[C@@H]2NC(=O)[C@]3(Cc4ccccc4)CCCN(C3)C(=O)/C=C/C(=O)NCC[C@@H](C(=O)NCCOCCN)NC(=O)Cc3ccccc3CNC2=O)cc1 [A-9] the “inhibition of NKTR” value [1] was “abolished inhibition”, the “inhibition of CypG” value [2] was “abolished inhibition” and the “inhibition of PPWD1” value [3] was “abolished inhibition”. For the same compound, the “inhibition of CypH” value [4] was “abolished inhibition”.
In the case of CC(=O)c1ccc(-c2ccc(C[C@@H]3NC(=O)[C@]4(Cc5ccccc5)CCCN(C4)C(=O)/C=C/C(=O)NCC[C@@H](C(=O)NCCOCCN)NC(=O)Cc4ccccc4CNC3=O)cc2)cc1 [A-22], the “number of tolerated Ca2+ pulses before full mPTP opening” value [5] is reported as “extend Ca^2+ loading” and the “rescue of mPTP in cell culture” value [6] is reported as “minimal rescue”.
With NCCOCCNC(=O)[C@@H]1CCNC(=O)/C=C/C(=O)N2CCC[C@](Cc3ccccc3)(C2)C(=O)N[C@@H](Cc2ccc(-c3ccc(CCC(=O)O)cc3)cc2)C(=O)NCc2ccccc2CC(=O)N1 [A-81] the IC50 ([7]; read-out: potency for CypD) was 2.5 nM, the “potency for CypD (in words)” value ([7]; result in words) was “high potency” and the “specificity / selectivity profile for CypD (in words)” value [8] was “high specificity; also recorded: drastic preference for inhibition of CypD”. The “number of tolerated Ca2+ pulses before full mPTP opening” value [5] was “extend Ca^2+ loading” and the “rescue of mPTP in cell culture” value [6] was “appears to not rescue mPTP”.
